These results are taken from US20160176867A1, “MODIFIED BET-PROTEIN-INHIBITING DIHYDROQUINOXALINONES AND DIHYDROPYRIDOPYRAZINONES” (BAYER PHARMA AKTIENGESELLSCHAFT, priority 2013, published 2016).

As a reminder, the IC50 is the concentration that gives 50% inhibition.

In the test the target is T1, BRD4 bromo domain 2 [BRD4(2)] (Homo sapiens, UniProt O60885).
T1 construct: N-terminally His6-tagged BRD4(2) (amino acids 357-445); made in house; host or cells: E. coli
The test can be described thus: BRD4/acetylated peptide H4 binding assay (TR-FRET), BRD4 bromo domain 2. The conditions noted are these: inhibition of BRD4(2)/Ac-H4 peptide interaction. A digest of the protocol: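 IC50 comes from a 4-parameter fit over 0.1 nM–20 μM in duplicate, normalised to DMSO and no-protein controls. TR-FRET (Eu-streptavidin/anti-His-XL665) tracks His-tagged BRD4(2) 357-445 at 100 nM binding Ac-H4 peptide in HEPES pH 7.5 buffer. Incubation was 1 h at 22 °C, then at 4 °C ≥3 h up to overnight.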
Background: Time-resolved FRET reads energy transfer from a long-lived donor to a nearby acceptor.

`COCCN1c2nc(Nc3cccc(S(=O)(=O)N4CCOCC4)c3)ccc2N(C)C(=O)C1C` (racemic) [Example 49, 4-(2-methoxyethyl)-1,3-dimethyl-6-{[3-(morpholin-4-ylsulphonyl)phenyl]amino}-3,4-dihydropyrido[2,3-b]pyrazin-2(1H)-one] had an IC50 of 159 nM. This lies in the sub-micromolar range. To `COCCN1c2nc(Nc3cccc(S(=O)(=O)N4CCN(C)CC4)c3)ccc2N(C)C(=O)C1C` (racemic) [Example 53, 4-(2-methoxyethyl)-1,3-dimethyl-6-({3-[(4-methylpiperazin-1-yl)sulphonyl]phenyl}-amino)-3,4-dihydropyrido-[2,3-b]pyrazin-2(1H)-one] belongs 186 nM; to `CC1C(=O)N(C)c2ccc(Nc3cccc(C(=O)NC4CCN(C)CC4)c3)nc2N1c1ccccc1` (racemic) [Example 104, 3-[(1,3-dimethyl-2-oxo-4-phenyl-1,2,3.4-tetrahydropyrido[2,3-b]pyrazin-6-yl)amino]-A-(1-methylpiperidin-4-yl)benzamide], 471 nM; to `COCCN1c2nc(Nc3cccc(S(=O)(=O)N4CCOCC4)c3)ccc2N(C)C(=O)[C@H]1C` (stereo in doubt) [Example 111, (3R)-4-(2-methoxyethyl)-1,3-dimethyl-6-{[3-(morpholin-4-ylsulphonyl)phenyl]amino}-3,4-dihydropyrido[2,3-b]pyrazin-2(1H)-one], 115 nM. To `C[C@@H]1C(=O)N(C)c2ccc(Nc3cccc(C(=O)N4CCN(C)CC4)c3)nc2N1C1CCCC1` [Example 1, (3R)-4-Cyclopentyl-1,3-dimethyl-6-({3-[(4-methylpiperazin-1-yl)carbonyl]phenyl}amino)-3,4-dihydropyrido[2,3-b]pyrazin-2(1H)-one] belongs 55 nM; to `C[C@@H]1C(=O)N(C)c2ccc(Nc3cccc(C(=O)NC4CCN(C)CC4)c3)nc2N1C1CCCC1` [Example 2, 3-{[(3R)-4-Cyclopentyl-1,3-dimethyl-2-oxo-1,2,3,4-tetrahydropyrido[2,3-b]pyrazin-6-yl]amino}-N-(1-methylpiperidin-4-yl)benzamide], 89 nM; to `C[C@@H]1C(=O)N(C)c2ccc(Nc3cccc(C(=O)NC4CN(C)C4)c3)nc2N1C1CCCC1` [Example 3, 3-{[(3R)-4-Cyclopentyl-1,3-dimethyl-2-oxo-1,2,3,4-tetrahydropyrido[2,3-b]pyrazin-6-yl]amino}-N-(1-methylazetidin-3-yl)benzamide], 91 nM. For `C[C@@H]1C(=O)N(C)c2ccc(Nc3cccc(C(=O)NCCN(C)C)c3)nc2N1C1CCCC1` [Example 4, 3-{[(3R)-4-Cyclopentyl-1,3-dimethyl-2-oxo-1,2,3,4-tetrahydropyrido[2,3-b]pyrazin-6-yl]amino}-N-[2-(dimethylamino)ethyl]benzamide] the value was 101 nM.

Take `C[C@@H]1C(=O)N(C)c2ccc(Nc3cccc(C(=O)N[C@H]4CC[C@H](N5CCN(CC6CC6)CC5)CC4)c3)nc2N1C1CCCC1` [Example 5, 3-{[(3R)-4-Cyclopentyl-1,3-dimethyl-2-oxo-1,2,3,4-tetrahydropyrido[2,3-b]pyrazin-6-yl]amino}-N-{trans-4-[4-(cyclopropylmethyl)piperazin-1-yl]cyclohexyl}benzamide]: the IC50 was 59 nM.

Take `C[C@@H]1C(=O)N(C)c2ccc(Nc3cccc(S(=O)(=O)N(C)C)c3)nc2N1C1CCOCC1` [Example 6, 3-{[(3R)-1,3-Dimethyl-2-oxo-4-(tetrahydro-2H-pyran-4-yl)-1,2,3,4-tetrahydropyrido[2,3-b]pyrazin-6-yl]amino}-N,N-dimethylbenzenesulphonamide]: the half-maximal inhibitory concentration (IC50) is 32 nM. For `C[C@@H]1C(=O)N(C)c2ccc(Nc3cccc(S(=O)(=O)N(C)C)c3)cc2N1C1CCOCC1` [Example 7, 3-{[(3R)-1,3-Dimethyl-2-oxo-4-(tetrahydro-2H-pyran-4-yl)-1,2,3,4-tetrahydroguinoxalin-6-yl]amino}-N,N-dimethylbenzenesulphonamide] the value was 71 nM; for `C[C@@H]1C(=O)N(C)c2ccc(Nc3cccc(S(=O)(=O)N4CCOCC4)c3)cc2N1C1CCOCC1` [Example 8, (3R)-1,3-Dimethyl-6-{[3-(morpholin-4-ylsulphonyl)phenyl]amino}-4-(tetrahydro-2H-pyran-4-yl)-3,4-dihydroquinoxalin-2(1H)-one], 89 nM. Consider `C[C@@H]1C(=O)N(C)c2ccc(Nc3cccc(S(=O)(=O)N4CCOCC4)c3)nc2N1C1CCOCC1` [Example 9, (3R)-1,3-Dimethyl-6-{[3-(morpholin-4-ylsulphonyl)phenyl]amino}-4-(tetrahydro-2H-pyran-4-yl)-3,4-dihydropyrido[2,3-b]pyrazin-2(1H)-one], for which the IC50 was 54 nM. For `COc1ccc(CN2c3cc(Nc4cccc(S(=O)(=O)N(C)C)c4)ccc3N(C)C(=O)[C@H]2C)cc1` [Example 10, 3-{[(3R)-4-(4-Methoxybenzyl)-1,3-dimethyl-2-oxo-1,2,3,4-tetrahydroquinoxalin-6-yl]amino}-N,N-dimethylbenzenesulphonamide] the value was 62 nM; for `C[C@@H]1C(=O)N(C)c2ccc(Nc3cccc(S(=O)(=O)N4CCN(C)CC4)c3)nc2N1C1CCOCC1` [Example 12, (3R)-1,3-Dimethyl-6-({3-[(4-methylpiperazin-1-yl)sulphonyl]phenyl}amino)-4-(tetrahydro-2H-pyran-4-yl)-3,4-dihydropyrido[2,3-b]pyrazin-2(1H)-one], 68 nM; for `C[C@@H]1C(=O)N(C)c2ccc(Nc3cccc(C(=O)NC4CCN(C)CC4)c3)nc2N1C1CCOCC1` [Example 13, 3-{[(3R)-1,3-Dimethyl-2-oxo-4-(tetrahydro-2H-pyran-4-yl)-1,2,3,4-tetrahydropyrido[2,3-b]pyrazin-6-yl]amino}-N-(1-methylpiperidin-4-yl)benzamide], 218 nM.

On to `C[C@@H]1C(=O)N(C)c2ccc(Nc3cccc(C(=O)N[C@H]4CC[C@H](N5CCN(CC6CC6)CC5)CC4)c3)nc2N1C1CCOCC1` [Example 14, N-{trans-4-[4-(Cyclopropylmethyl)piperazin-1-yl]cyclohexyl}-3-{[(3R)-1,3-dimethyl-2-oxo-4-(tetrahydro-2H-pyran-4-yl)-1,2,3,4-tetrahydropyrido[2,3-b]pyrazin-6-yl]amino}benzamide], for which the half-inhibitory concentration (IC50) is 170 nM. The IC50 values of the last two compounds are within 1.5-fold of each other. To `C[C@@H]1C(=O)N(C)c2ccc(Nc3cccc(C(=O)N4CCN(C)CC4)c3)nc2N1C1CCOCC1` [Example 15, (3R)-1,3-Dimethyl-6-({3-[(4-methylpiperazin-1-yl)carbonyl]phenyl}amino)-4-(tetrahydro-2H-pyran-4-yl)-3,4-dihydropyrido[2,3-b]pyrazin-2(1H)-one] belongs 196 nM; to `COc1ccc(C(=O)NC2CCN(C)CC2)cc1Nc1ccc2c(n1)N(C1CCOCC1)[C@H](C)C(=O)N2C` [Example 16, 3-{[(3R)-1,3-Dimethyl-2-oxo-4-(tetrahydro-2H-pyran-4-yl)-1,2,3,4-tetrahydropyrido[2,3-b]pyrazin-6-yl]amino}-4-methoxy-N-(1-methylpiperidin-4-yl)benzamide], 174 nM.

Consider `C[C@@H]1C(=O)N(C)c2ccc(Nc3cccc(S(=O)(=O)NC4CCN(C)CC4)c3)nc2N1C1CCOCC1` [Example 20, 3-{[(3R)-1,3-Dimethyl-2-oxo-4-(tetrahydro-2H-pyran-4-yl)-1,2,3,4-tetrahydropyrido[2,3-b]pyrazin-6-yl]amino}-N-(1-methylpiperidin-4-yl)benzenesulphonamide], for which the IC50 worked out at 52 nM. To `C[C@@H]1C(=O)N(C)c2ccc(Nc3cccc(S(=O)(=O)NCCN(C)C)c3)nc2N1C1CCOCC1` [Example 21] belongs 53 nM; to `CCNS(=O)(=O)c1cccc(Nc2ccc3c(n2)N(C2CCOCC2)[C@H](C)C(=O)N3C)c1` [Example 23, 3-{[(3R)-1,3-dimethyl-2-oxo-4-(tetrahydro-2H-pyran-4-yl)-1,2,3,4-tetrahydropyrido[2,3-b]pyrazin-6-yl]amino}-N-ethylbenzenesulphonamide], 39 nM; to `C[C@@H]1C(=O)N(C)c2ccc(Nc3cccc(S(=O)(=O)N4CCCC4)c3)nc2N1C1CCN(C)CC1` [Example 24, (3R)-1,3-Dimethyl-4-(1-methylpiperidin-4-yl)-6-{[3-(pyrrolidin-1-ylsulphonyl)phenyl]amino}-3,4-dihydropyrido[2,3-b]pyrazin-2(1H)-one], 55 nM. With `COc1ccc(S(=O)(=O)N2CCOCC2)cc1Nc1ccc2c(n1)N(C1CCN(C)CC1)[C@H](C)C(=O)N2C` [Example 25, (3R)-6-{[2-Methoxy-5-(morpholin-4-ylsulphonyl)phenyl]amino}-1,3-dimethyl-4-(1-methylpiperidin-4-yl)-3,4-dihydropyrido[2,3-b]pyrazin-2(1H)-one], the IC50 was found to be 56 nM. In turn, `C[C@@H]1C(=O)N(C)c2ccc(Nc3cccc(S(=O)(=O)NC4CC4)c3)nc2N1C1CCOCC1` [Example 26, N-Cyclopropyl-3-{[(3R)-1,3-dimethyl-2-oxo-4-(tetrahydro-2H-pyran-4-yl)-1,2,3,4-tetrahydropyrido[2,3-b]pyrazin-6-yl]amino}benzenesulphonamide] yielded a concentration for half-maximal inhibition (IC50) of 31 nM. This IC50 is about 1.8-fold lower than that of the compound before. For the compound `C[C@@H]1C(=O)N(C)c2ccc(Nc3cccc(S(=O)(=O)N4CCCC4)c3)nc2N1C1CCOCC1` [Example 27, (3R)-1,3-Dimethyl-6-{[3-(pyrrolidin-1-ylsulphonyl)phenyl]amino}-4-(tetrahydro-2H-pyran-4-yl)-3,4-dihydropyrido[2,3-b]pyrazin-2(1H)-one], the half-inhibitory concentration (IC50) came to 40 nM. For `COc1ccc(S(=O)(=O)N2CCOCC2)cc1Nc1ccc2c(n1)N(C1CCOCC1)[C@H](C)C(=O)N2C` [Example 28, (3R)-6-{[2-Methoxy-5-(morpholin-4-ylsulphonyl)phenyl]amino}-1,3-dimethyl-4-(tetrahydro-2H-pyran-4-yl)-3,4-dihydropyrido[2,3-b]pyrazin-2(1H)-one], the IC50 is 53 nM.
